We go through 1 compound from patent US20240294550A1, “8-OXA-3-AZABICYCLO[3.2.1]OCTANE COMPOUNDS OR SALT THEREOF, AND PREPARATION METHOD AND USE THEREOF” (LITTDD MEDICINES LTD, priority 2021, published 2024).

For data set [1], the target named is ATR (Homo sapiens (Human), UniProt Q13535). Put plainly: ATR kinase inhibition assay (HTRF). The class given is biochemical. The note with it: p53 substrate, ATP 150 nM. Background: Time-resolved FRET reads energy transfer from a long-lived donor to a nearby acceptor.
Data set [2] is described as follows: Equilibrium solubility in FaSSIF. The class given is physicochemical. The note with it: thermodynamic from solid; FaSSIF pH 6.5, shaken 24 hours. The protocol:
The compound powder was weighed into a volumetric flask, 450 μL of pH 6.5 FaSSIF solution was added to obtain a supersaturated suspension, the samples were vortexed for at least 2 minutes, and the volumetric flasks were shaken on a vibrating screen at 800 rpm for 24 hours, and then centrifuged at 4000 rpm for 20 minutes. The compressed filtrate was added to a HPLC system, and the concentrations were calculated by a standard curve method.

The nature of data set [3]: Metabolic stability in human liver microsomes. The class given is in vitro ADME. The protocol:
(§1) Drug-like Properties: Concepts, Structure Design and Methods: from ADME to Toxicity Optimization. […] Screen. […] After incubation for appropriate time (such as 5, 10, 20, 30 and 60 minutes), samples were collected, and an appropriate termination solution (glacial acetonitrile containing 200 ng/mL tolbutamide and 200 ng/mL labetalol (i.e. acetonitrile at 4° C.)) was added to stop the reaction. Sample treatment (n=1): each appropriate sample was added, vortexed and centrifuged at high speed. The supernatants were collected, and detected the substrate by HPLC-MS/MS. The peak area at the 0 min was set as 100%. The peak areas at other time points were converted to percentages of the remaining amount. The natural logarithms of the percentage of remaining amount at each time point was plotted against the incubation time, and the slope (−k) was calculated. Then, Clint (μL/min/mg) and half-life (T½, min) of the compounds were calculated following the equation: Inherent clearance rate (Clint)=(k*Volume of incubation solution)/Mass of liver microsomes.

Data set [4] can be described thus: Metabolic stability in mouse liver microsomes. The data set is classed as in vitro ADME, CD-1 mice. As for the experimental part: as §1
A general note: Microsomes from liver hold many membrane-bound enzymes, among them those of drug oxidation.

Data set [5] is described as follows: Pharmacokinetic (PK) assay in mice. The class given is in vivo. The note with it: CD-1 mice; for AUC(0-t): read-out: AUC0-24 h. The protocol:
The PK of each compound was determined as follows: 6 CD-1 mice (obtained from Shanghai Lingchang Biotechnology Co., Ltd.) were divided into two groups, 3 mice in each group. […] Blood samples were collected from saphenous vein of lower leg in each group at 0, 0.083, 0.25, 0.5, 1, 2, 4, 6, 8 and 24 h after administration. Approximately 40 μL of the blood samples were collected in anticoagulant tubes containing EDTA-K2. Immediately after collection, the tubes were inverted at least 5 times to ensure adequate mixing, and then placed on ice. The blood samples collected at each time point were centrifuged at 4° C., 8000 rpm for 5 minutes to obtain plasma. Another 1.5 mL centrifuge tube was marked with the compound name, animal number, and time point, and the plasma was transferred to this tube. The plasma was stored at −80° C. until analysis.
Compound concentrations in plasma were determined by UPLC-MS/MS method, and the pharmacokinetic parameters were calculated by Phoenix WinNolin 6.4 pharmacokinetic software on the obtained data.

Converted amounts (≈) assume the structure as drawn. Where two headings read alike, the source gives them in different places.

Chain of ATR (Q13535 whole entry): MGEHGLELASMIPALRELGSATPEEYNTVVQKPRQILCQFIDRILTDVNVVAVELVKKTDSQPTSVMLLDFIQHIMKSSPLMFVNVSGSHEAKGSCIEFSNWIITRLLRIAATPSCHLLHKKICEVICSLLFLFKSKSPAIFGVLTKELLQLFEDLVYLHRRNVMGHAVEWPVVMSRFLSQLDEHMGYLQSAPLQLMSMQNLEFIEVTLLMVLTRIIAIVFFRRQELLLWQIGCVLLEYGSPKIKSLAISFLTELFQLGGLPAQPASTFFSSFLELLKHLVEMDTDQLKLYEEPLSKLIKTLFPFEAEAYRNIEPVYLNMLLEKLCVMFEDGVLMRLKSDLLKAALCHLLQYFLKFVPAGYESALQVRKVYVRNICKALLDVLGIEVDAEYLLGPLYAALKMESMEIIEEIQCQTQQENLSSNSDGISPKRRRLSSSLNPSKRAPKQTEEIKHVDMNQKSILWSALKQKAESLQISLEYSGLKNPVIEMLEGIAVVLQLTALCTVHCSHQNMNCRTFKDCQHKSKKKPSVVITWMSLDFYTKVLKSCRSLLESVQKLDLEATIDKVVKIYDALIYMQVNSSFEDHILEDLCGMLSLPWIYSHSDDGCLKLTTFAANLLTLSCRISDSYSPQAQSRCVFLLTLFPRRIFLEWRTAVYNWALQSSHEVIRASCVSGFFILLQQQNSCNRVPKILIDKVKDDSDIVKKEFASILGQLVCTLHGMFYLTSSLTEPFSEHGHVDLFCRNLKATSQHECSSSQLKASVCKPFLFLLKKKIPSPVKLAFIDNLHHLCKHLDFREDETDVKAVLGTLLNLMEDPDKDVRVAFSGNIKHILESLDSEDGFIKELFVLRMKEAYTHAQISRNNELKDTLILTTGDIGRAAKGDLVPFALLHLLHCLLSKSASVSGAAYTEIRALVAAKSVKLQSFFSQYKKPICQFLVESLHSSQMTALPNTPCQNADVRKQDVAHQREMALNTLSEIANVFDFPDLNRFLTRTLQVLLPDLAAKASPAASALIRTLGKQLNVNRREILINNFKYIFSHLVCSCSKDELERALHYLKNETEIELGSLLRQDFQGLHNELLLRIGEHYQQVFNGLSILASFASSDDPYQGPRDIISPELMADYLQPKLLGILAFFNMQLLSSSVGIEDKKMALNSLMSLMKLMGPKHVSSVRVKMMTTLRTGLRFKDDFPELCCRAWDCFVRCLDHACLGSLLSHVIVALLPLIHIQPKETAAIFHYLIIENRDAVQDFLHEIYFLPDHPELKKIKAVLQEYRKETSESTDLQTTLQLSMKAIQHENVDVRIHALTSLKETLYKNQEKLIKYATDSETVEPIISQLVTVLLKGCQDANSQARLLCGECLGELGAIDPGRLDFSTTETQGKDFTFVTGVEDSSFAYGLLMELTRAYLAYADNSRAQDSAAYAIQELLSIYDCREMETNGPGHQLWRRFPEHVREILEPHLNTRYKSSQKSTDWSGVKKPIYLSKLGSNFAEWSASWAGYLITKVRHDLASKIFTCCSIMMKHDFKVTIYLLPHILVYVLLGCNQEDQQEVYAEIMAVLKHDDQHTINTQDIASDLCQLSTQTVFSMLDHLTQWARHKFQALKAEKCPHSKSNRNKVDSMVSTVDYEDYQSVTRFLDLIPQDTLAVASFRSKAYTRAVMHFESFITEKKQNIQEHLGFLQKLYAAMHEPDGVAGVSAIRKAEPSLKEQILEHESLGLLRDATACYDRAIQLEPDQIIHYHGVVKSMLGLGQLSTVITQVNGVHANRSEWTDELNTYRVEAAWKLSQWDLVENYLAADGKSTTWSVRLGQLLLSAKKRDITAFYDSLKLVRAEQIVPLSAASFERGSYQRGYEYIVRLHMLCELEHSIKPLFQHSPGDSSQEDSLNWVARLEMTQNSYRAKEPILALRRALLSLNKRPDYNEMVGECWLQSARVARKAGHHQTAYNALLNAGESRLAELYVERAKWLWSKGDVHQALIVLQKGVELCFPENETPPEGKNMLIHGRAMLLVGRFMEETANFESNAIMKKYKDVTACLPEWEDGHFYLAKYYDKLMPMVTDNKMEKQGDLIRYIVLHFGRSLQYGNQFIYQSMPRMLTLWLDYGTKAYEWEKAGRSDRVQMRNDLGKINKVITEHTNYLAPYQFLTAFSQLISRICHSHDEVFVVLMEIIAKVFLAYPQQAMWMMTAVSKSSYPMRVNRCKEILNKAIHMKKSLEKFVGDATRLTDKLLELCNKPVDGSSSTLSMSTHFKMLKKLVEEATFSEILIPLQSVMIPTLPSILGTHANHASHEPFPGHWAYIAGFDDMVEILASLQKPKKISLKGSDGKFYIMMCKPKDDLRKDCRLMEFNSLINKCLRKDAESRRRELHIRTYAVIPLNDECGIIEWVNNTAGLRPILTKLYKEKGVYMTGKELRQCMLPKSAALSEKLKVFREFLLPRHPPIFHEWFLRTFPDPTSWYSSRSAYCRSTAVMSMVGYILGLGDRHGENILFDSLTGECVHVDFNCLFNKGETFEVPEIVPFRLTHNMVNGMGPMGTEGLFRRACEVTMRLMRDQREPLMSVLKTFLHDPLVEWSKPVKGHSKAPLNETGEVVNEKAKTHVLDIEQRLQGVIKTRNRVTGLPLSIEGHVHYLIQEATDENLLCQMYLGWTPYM
Chain of ATR (Q8WXE1 whole entry partner): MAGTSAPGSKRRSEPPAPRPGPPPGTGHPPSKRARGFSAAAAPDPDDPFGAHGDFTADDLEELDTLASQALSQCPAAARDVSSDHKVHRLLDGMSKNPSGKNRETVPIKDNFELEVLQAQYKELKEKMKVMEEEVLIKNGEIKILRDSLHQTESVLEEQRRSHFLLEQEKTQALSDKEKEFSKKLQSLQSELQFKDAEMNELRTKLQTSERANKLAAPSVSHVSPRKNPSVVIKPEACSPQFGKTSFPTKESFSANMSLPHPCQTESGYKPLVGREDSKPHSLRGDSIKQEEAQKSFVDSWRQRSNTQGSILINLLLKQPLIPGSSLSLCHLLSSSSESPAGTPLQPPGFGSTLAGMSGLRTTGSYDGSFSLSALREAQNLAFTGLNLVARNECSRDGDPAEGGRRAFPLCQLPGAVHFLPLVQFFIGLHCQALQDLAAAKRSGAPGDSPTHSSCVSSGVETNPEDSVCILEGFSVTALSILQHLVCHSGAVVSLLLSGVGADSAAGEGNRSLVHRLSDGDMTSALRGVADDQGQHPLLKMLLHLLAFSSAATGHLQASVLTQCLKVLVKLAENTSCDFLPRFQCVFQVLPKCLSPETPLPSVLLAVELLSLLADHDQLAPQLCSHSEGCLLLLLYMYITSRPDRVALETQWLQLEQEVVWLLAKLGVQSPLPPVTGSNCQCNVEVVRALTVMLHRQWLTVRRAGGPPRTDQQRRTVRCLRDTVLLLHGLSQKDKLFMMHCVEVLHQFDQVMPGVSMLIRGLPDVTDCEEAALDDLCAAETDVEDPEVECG

A word on the IC50: it is the concentration needed to halve the response being measured. A high value points to a need for much substance. Usually solubility stands for how much of the substance goes into solution per volume. As a reminder, the half-life is the time in which the quantity being followed falls by half. In general, bioavailability refers to the share of a dose that reaches the circulation, judged against a reference dose that is usually intravenous. Low readings indicate poor availability, high ones good availability. By Cmax is commonly meant the maximum level reached in the sampled fluid or tissue. Compound `C[C@@H]1COCCN1c1cc(N2CC3CCC(C2)O3)nc2c(-c3cc[nH]n3)cnn12` [Example 1, 3-(7-((R)-3-methylmorpholino)-3-(1H-pyrazol-3-yl)pyrazolo[1,5-a]pyrimidin-5-yl)-8-oxa-3-azabicyclo[3.2.1]octane] registered an IC50 in data set [1] of 17.4 nM. In data set [2], the concentration in solution (solubility at 24 h) was 1140 µg/mL (≈ 2880 µM). Moreover, the half-life at 1 μM in data set [3] (1 μM compound) was 1.97 h; in data set [4] (CD-1, 1 μM compound) it was 0.972 h. The “Remain % (T = 60 min)” value worked out at 65.0% in data set [3] (T = 60 min) and 44.4% in data set [4] (T = 60 min). The microsomal CLint at 1 μM in data set [3] (read-out: CLint(mic)) was 11.7 µL/min/mg; in data set [4] (CD-1, read-out: CLint(mic)) it was 23.8 µL/min/mg. The CL_obs in data set [5] (IV dose 1 mg/kg) worked out at 18.3 mL/min/kg. The half-life in data set [5] (mouse, plasma, IV dose 1 mg/kg) was 1.51 h; in data set [5] (mouse, plasma, Po dose 5 mg/kg) it was 2.57 h. The Vd in data set [5] (mouse, plasma, IV dose 1 mg/kg, read-out: Vss) amounted to 1.68 L/kg. The compound also registered a bioavailability in data set [5] (mouse, plasma, Po dose 5 mg/kg vs IV dose 1 mg/kg) of 75.6%. Also, in data set [5] (mouse, IV dose 1 mg/kg, plasma), the C0 was 823 ng/mL. Further, the AUC(0-t) in data set [5] (mouse, IV dose 1 mg/kg, plasma) worked out at 925 ng·h/mL; in data set [5] (mouse, Po dose 5 mg/kg, plasma) it was 3440 ng·h/mL. In data set [5] (mouse, Po dose 5 mg/kg, plasma), the peak concentration (Cmax) worked out at 1080 ng/mL.
